Data on two compounds can be found in patent publication US7029879B1, “Iodine uptake restoration in thyroid cancer” (University of Kentucky Research Foundation, priority 1999, dated 2006).

In series [1] the test system is KAK-1 cells (benign follicular adenoma). Kind of series: Iodide uptake assay (specific 125I uptake), KAK-1. Format: cell-based, human. The note with it: for Specific ^125I Uptake: KAK-1. The protocol:
(§1) Cell lines, for evaluation of iodide-uptake and hNIS expression, were grown in phenol-red-free RPMI 1640 with 5% fetal bovine serum (FBS), 100 nM sodium selenite and 0.1 nM bovine TSH (basal medium) (20). They were plated at a density of 3–5×10^4 cells/9.4 cm^2, in triplicate in basal medium, and grown for 2–3 days at 37° C. in 5% CO2. They were treated with dimethylsulfoxide (DMSO, 25 μM daily for 3 days), sodium butyrate (0.5 or 1.0 mM), phenylacetate (pH 7.0, 5 or 10 mM) or 5-azacytidine (0.5 or 1.0 μM, in 25 μM DMSO, daily for 3 days) until control cells were 80% confluent (3–4 days), then changed to fresh basal medium and grown for an additional 24 hrs.
(§2) Cell lines, treated with differentiation agents and control cultures, were washed with 2 mL of buffer containing: 10 mM HEPES ([…]), 5.5 mM glucose, 5.4 mM KCl, 1.3 mM CaCl2, 0.4 mM Na2HPO4, 0.44 mM KH2PO4, and either 137 mM NaCl (Buffer A) or 100 mM choline chloride (Buffer B). After a 60 min incubation in the same buffer supplemented with Na(^125I) (1.0 μCi/2 mL) and 1.0 μM NaI, cells were washed once with Buffer A, lysed with 0.1 M NaOH and gamma counted (5). A parallel set of dishes, similarly plated and treated, were used for normalization of uptake activity, using 3-(4,5-dimethylthiazol-2-yl)-2,5-diphenyltetrazolium bromide (MTT) assay (25) as an index of cell viability. Gamma counts of cells incubated in Buffer B were subtracted from counts of cells incubated in Buffer A, under corresponding conditions, to account for non-specific binding of radioiodide.

Series [2] relates to KAT-10 cells (papillary carcinoma). Kind of series: Iodide uptake assay (specific 125I uptake), KAT-10. Note: key: mRNA expression (hNIS, TTF-1, Pax-8): +, positive; −, negative. Type of series: cell-based, human. Here is the method: as §1, §2
Another series concerns KAT-10 cells. The series can be described thus: Lethality of culture additive in cell culture. The note with it: AzaC high, 1.0 μM. Type of series: cell-based, human. Here is the method:
as §1

Series [3] relates to TTF-1 expression and thyroglobulin promoter activity. The note with it: transformed rat thyroid cell line (activated RAS oncogene); cited from earlier work.
The mark [4] stands for this setting: high: AzaC 1.0 μM, NaB 1.0 mM, PhAc 10 mM.
The mark [5] stands for this setting: low: AzaC 0.5 μM, NaB 0.5 mM, PhAc 5.0 mM.

For `CCCC(=O)[O-].[Na+]` [NaB, sodium butyrate], the “Specific ^125I Uptake” value in series [1] (setting [4]) is listed as “−”; in series [1] (setting [5]), “−”; in series [2] (high: NaB 1.0 mM, PhAc 10 mM), “−”; in series [2] (setting [5]), “−”.
Take `Nc1ncn([C@@H]2O[C@H](CO)[C@@H](O)[C@H]2O)c(=O)n1` [AzaC, 5-azacytidine]: the “Specific ^125I Uptake” value was “+” in series [1] (setting [4]), “−” in series [1] (setting [5]) and “−” in series [2] (setting [5]). Besides, the “enhancement of ^125I uptake” value in series [1] (KAK-1 cells, 0.5 μM 5-azacytidine) was “no enhancement of uptake”. Besides, the “increase in ^125I uptake as compared with untreated cells” value in series [1] (KAK-1 cells, 1.0 μM 5-azacytidine) is listed as “greater than two-fold”. Also, the “Lethality of additive concentration for the cell line” value with KAT-10 cells is given as “Lethal additive concentration for this cell line”. Also, the TTF-1 expression entry in series [3] is reported as “restored”. In series [3], the thyroglobulin promoter activity entry is “restored”.
